The results in this text go back to ChEMBL document CHEMBL2375306, “Antimicrobial peptides containing unnatural amino acid exhibit potent bactericidal activity against ESKAPE pathogens” (Bioorg Med Chem, 2013).

In data set [1] the test system is Staphylococcus aureus. Put plainly: Antibacterial activity against community-associated methicillin-resistant Staphylococcus aureus USA300 after 24 hrs by broth microdilution method. It is filed as functional. The note with it: USA300, 24 h. A general note: Broth dilution looks for growth in wells or tubes with falling amounts of substance.
The subject of data set [2] is NHDF. Put plainly: Cytotoxicity against NHDF at >50 ug/ml after 6 hrs by MTT assay. The format is cell-based. Conditions: human. (In general: Tetrazolium assays rely on reduction of a dye to a coloured formazan, in cell work by metabolically active cells.)
The test system of data set [3] is Klebsiella aerogenes. In words: Antibacterial activity against Enterobacter aerogenes after 24 hrs by broth microdilution method. The format is functional.
For data set [4], the system named is Staphylococcus aureus. Put plainly: Antibacterial activity against methicillin-sensitive Staphylococcus aureus UAMS-1 after 24 hrs by broth microdilution method. The format is functional. The note with it: UAMS-1, 24 h.
The test system of data set [5] is NHDF. In words: Cytotoxicity against NHDF at >50 ug/ml after 6 hrs by LDH assay. It is filed as cell-based. Conditions: human.
Data set [6] relates to Klebsiella pneumoniae. Put plainly: Antibacterial activity against Klebsiella pneumoniae BAMS clinical isolate 07-18 after 24 hrs by broth microdilution method. The format is functional. Conditions: BAMS clinical isolate 07-18, 24 h.
Data set [7] concerns Pseudomonas aeruginosa. In words: Antibacterial activity against Pseudomonas aeruginosa PAO1 after 24 hrs by broth microdilution method. Conditions: PAO1, 24 h. The format is functional.
Data set [8] concerns Acinetobacter baumannii. Put plainly: Antibacterial activity against Acinetobacter baumannii WRAIR clinical isolate 13 after 24 hrs by broth microdilution method. Conditions: WRAIR clinical isolate 13, 24 h. The format is functional.
Data set [9] deals with Enterococcus faecium. Put plainly: Antibacterial activity against Enterococcus faecium MMC4 after 24 hrs by broth microdilution method. The format is functional. Conditions: MMC4, 24 h.
For data set [10], the system named is NHDF. Put plainly: Cytotoxicity against NHDF at 50 ug/ml after 6 hrs by LDH assay. It is filed as cell-based. The note with it: human.
The subject of data set [11] is NHDF. Put plainly: Cytotoxicity against NHDF at 50 ug/ml after 6 hrs by MTT assay. It is filed as cell-based. Conditions: human.

Values after ≈ are worked out from the molar mass of the structure shown. Square brackets hold non-standard residues; d marks the D form. Peptide text beside a SMILES is read from it. ξ: configuration not given here. Pro(3ξ,4ξ-(CH2)4) = O=C(O)[C@H]1NCC2CCCCC21; Tic = O=C(O)[C@@H]1Cc2ccccc2CN1; Orn = NCCC[C@H](N)C(=O)O; Dab = NCC[C@H](N)C(=O)O

By MIC is commonly meant the lowest concentration found to suppress growth. A low value points to a more susceptible organism. One may read the MBC as the lowest tested concentration that kills the bacteria rather than only halting them. A lower MBC goes with greater bactericidal potency.

Turning to `CC(=O)NCC(=O)N[C@@H](Cc1ccccc1)C(=O)N1Cc2ccccc2C[C@H]1C(=O)N1CC2CCCCC2[C@H]1C(=O)NCC(=O)N[C@@H](CCN)C(=O)N1Cc2ccccc2C[C@H]1C(=O)N1CC2CCCCC2[C@H]1C(=O)NCC(=O)N[C@@H](Cc1ccccc1)C(=O)N1Cc2ccccc2C[C@H]1C(=O)N1CC2CCCCC2[C@H]1C(=O)NCC(=O)N[C@@H](CCN)C(=O)N1Cc2ccccc2C[C@H]1C(=O)N[C@@H](CCN)C(=O)N[C@@H](CCN)C(=O)N[C@@H](CCN)C(=O)N[C@@H](CCN)C(N)=O` (stereo not given in full) (Ac-GF[Tic][Pro(3ξ,4ξ-(CH2)4)]G[Dab][Tic][Pro(3ξ,4ξ-(CH2)4)]GF[Tic][Pro(3ξ,4ξ-(CH2)4)]G[Dab][Tic][Dab][Dab][Dab][Dab]-NH2), the MIC in [1] turned out to be 25 mg/L (≈ 11 µM); in data set [3] it was 25 mg/L (≈ 11 µM); in [4], 50 mg/L (≈ 22 µM); in [6], 12.5 mg/L (≈ 5.5 µM); in data set [7], 12.5 mg/L (≈ 5.5 µM); in data set [8], 6.25 mg/L (≈ 2.75 µM). In [9], this compound returned an MIC of 6.25 mg/L (≈ 2.75 µM). Moreover, the Activity result in data set [2] is recorded as “Toxic”; in [5] it was “Toxic”; in data set [10], “Non-toxic”; in data set [11], “Non-toxic”. The minimum bactericidal concentration (MBC) in data set [3] came out at 25 mg/L (≈ 11 µM); in data set [4], 50 mg/L (≈ 22 µM); in data set [6], 12.5 mg/L (≈ 5.5 µM); in [7], 25 mg/L (≈ 11 µM); in data set [8], 12.5 mg/L (≈ 5.5 µM); in data set [9], 50 mg/L (≈ 22 µM).
For the compound `CC(C)C[C@H](NC(=O)[C@@H](N)CCCCN)C(=O)N1Cc2ccccc2C[C@H]1C(=O)N1CC2CCCCC2[C@H]1C(=O)N[C@@H](CCCCN)C(=O)NCC(=O)N1Cc2ccccc2C[C@H]1C(=O)N1CC2CCCCC2[C@H]1C(=O)N[C@@H](Cc1ccccc1)C(=O)NCC(=O)N1Cc2ccccc2C[C@H]1C(=O)N1CC2CCCCC2[C@H]1C(=O)N[C@@H](CCCCN)C(=O)NCC(=O)N1Cc2ccccc2C[C@H]1C(=O)N1CC2CCCCC2[C@H]1C(=O)N[C@@H](Cc1ccccc1)C(=O)NCC(=O)N1Cc2ccccc2C[C@H]1C(=O)N1CC2CCCCC2[C@H]1C(=O)N[C@@H](CCCCN)C(=O)NCC(=O)N1Cc2ccccc2C[C@H]1C(=O)N1CC2CCCCC2[C@H]1C(=O)N[C@@H](CCCCN)C(=O)N[C@@H](CCCCN)C(=O)N[C@@H](CCCCN)C(=O)N[C@@H](CCCCN)C(N)=O` (stereo not given in full) (H-KL[Tic][Pro(3ξ,4ξ-(CH2)4)]KG[Tic][Pro(3ξ,4ξ-(CH2)4)]FG[Tic][Pro(3ξ,4ξ-(CH2)4)]KG[Tic][Pro(3ξ,4ξ-(CH2)4)]FG[Tic][Pro(3ξ,4ξ-(CH2)4)]KG[Tic][Pro(3ξ,4ξ-(CH2)4)]KKKK-NH2), the Activity result is reported as “Toxic” in [2], “Toxic” in data set [5], “Non-toxic” in data set [10] and “Non-toxic” in data set [11]. In addition, the minimum bactericidal concentration (MBC) worked out at 50 mg/L (≈ 13.9 µM) in [3]; 50 mg/L (≈ 13.9 µM) in data set [4]; 50 mg/L (≈ 13.9 µM) in [6]; 50 mg/L (≈ 13.9 µM) in data set [7]; 25 mg/L (≈ 6.95 µM) in data set [8]; 25 mg/L (≈ 6.95 µM) in [9]. Moreover, the MIC in data set [3] worked out at 50 mg/L (≈ 13.9 µM); in data set [4] it was 12.5 mg/L (≈ 3.47 µM); in [6], 50 mg/L (≈ 13.9 µM); in [7], 50 mg/L (≈ 13.9 µM); in data set [8], 12.5 mg/L (≈ 3.47 µM); in data set [9] it was 6.25 mg/L (≈ 1.74 µM).
Take `CC(C)C[C@H](NC(=O)[C@@H](N)CCCN)C(=O)N1Cc2ccccc2C[C@H]1C(=O)N1CC2CCCCC2[C@H]1C(=O)N[C@@H](CCCN)C(=O)N1Cc2ccccc2C[C@H]1C(=O)N1CC2CCCCC2[C@H]1C(=O)N[C@@H](Cc1ccccc1)C(=O)N1Cc2ccccc2C[C@H]1C(=O)N1CC2CCCCC2[C@H]1C(=O)N[C@@H](CCCN)C(=O)N1Cc2ccccc2C[C@H]1C(=O)N1CC2CCCCC2[C@H]1C(=O)N[C@@H](Cc1ccccc1)C(=O)N1Cc2ccccc2C[C@H]1C(=O)N1CC2CCCCC2[C@H]1C(=O)N[C@@H](CCCN)C(=O)N1Cc2ccccc2C[C@H]1C(=O)N1CC2CCCCC2[C@H]1C(=O)N[C@@H](CCCN)C(=O)N[C@@H](CCCN)C(=O)N[C@@H](CCCN)C(=O)N[C@@H](CCCN)C(N)=O` (stereo not given in full) (H-[Orn]L[Tic][Pro(3ξ,4ξ-(CH2)4)][Orn][Tic][Pro(3ξ,4ξ-(CH2)4)]F[Tic][Pro(3ξ,4ξ-(CH2)4)][Orn][Tic][Pro(3ξ,4ξ-(CH2)4)]F[Tic][Pro(3ξ,4ξ-(CH2)4)][Orn][Tic][Pro(3ξ,4ξ-(CH2)4)][Orn][Orn][Orn][Orn]-NH2): the MBC in data set [3] is over 100 mg/L; in [4] it was 100 mg/L (≈ 31.2 µM); in [6], over 100 mg/L; in [7] it was over 100 mg/L; in [8] it was 100 mg/L (≈ 31.2 µM); in data set [9] it was 50 mg/L (≈ 15.6 µM). Besides, the minimal inhibitory concentration (MIC) in data set [3] worked out at 100 mg/L (≈ 31.2 µM); in data set [4] it was 50 mg/L (≈ 15.6 µM); in data set [6], 100 mg/L (≈ 31.2 µM); in data set [7], 100 mg/L (≈ 31.2 µM); in data set [8], 12.5 mg/L (≈ 3.91 µM); in data set [9], 12.5 mg/L (≈ 3.91 µM).
